Test results taken from patent US5811445A, “Method of preventing abnormal stimulation of AT1 and AT2 receptors” (Roussel Uclaf, priority 1994, dated 1998).
Counter-ions that a name gives are not always drawn. Like-named read-outs stand apart in the source and are kept apart here.

Experiments:
[1] = target: T1, AT1 receptor of angiotensin II (Rattus norvegicus, UniProt P25095); test: Test on the AT1 receptor of angiotensin II (displacement of 125I angiotensin II, rat liver membranes); assay type: binding
T1 construct: A fresh membrane preparation obtained from rat's liver is used; from tissue; host or cells: rat liver membranes
T1 sequence (P25095 1-359): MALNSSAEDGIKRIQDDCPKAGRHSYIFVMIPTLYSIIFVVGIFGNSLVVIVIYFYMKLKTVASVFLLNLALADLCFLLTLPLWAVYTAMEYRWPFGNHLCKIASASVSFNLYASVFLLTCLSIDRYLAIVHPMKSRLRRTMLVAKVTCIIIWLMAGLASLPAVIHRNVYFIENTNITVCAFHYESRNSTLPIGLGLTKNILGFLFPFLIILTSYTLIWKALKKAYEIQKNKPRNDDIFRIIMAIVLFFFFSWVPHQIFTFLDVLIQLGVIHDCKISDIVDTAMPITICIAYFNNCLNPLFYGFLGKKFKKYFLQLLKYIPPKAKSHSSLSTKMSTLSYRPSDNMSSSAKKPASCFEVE
Experimental: 1 - Test on the AT1 -receptor of angiotensin II
A fresh membrane preparation obtained from rat's liver is used. The tissue is ground up in a polytron in a 50 mM Tris buffer pH 7.4, the grinding is followed by 3 centrifugations at 30,000 g for 15 minutes with intermediate take up of the pellets in the Tris buffer pH 7.4.
(§1) (The product is first tested with 3×10^-5 M three times). When the tested product displaces more than 50% of the radioactivity specifically bound to the receptor, it is tested again according to a range of 7 concentrations in order to determine the concentration which inhibits by 50% the radioactivity specifically bound to the receptor. In this way the 50% inhibitory concentration is determined).
(§2) After incubation at 25° C. for 150 minutes, placing in a water-bath at 0° C. for 5 minutes, filtration under vacuum, and rinsing with Tris buffer pH 7.4, the radioactivity is counted in the presence of a scintillating solid.

[2] = target: T2, AT2 receptor of angiotensin II (Oryctolagus cuniculus, UniProt G1T351); test: Test on the AT2 receptor of angiotensin II (displacement of 125I angiotensin II, rabbit uterus membranes); assay type: binding
T2 construct: A fresh membrane preparation obtained from rabbit's uterus is used; from tissue; host or cells: uterus membranes of estradiol-treated rabbits
T2 sequence (G1T351 1-363): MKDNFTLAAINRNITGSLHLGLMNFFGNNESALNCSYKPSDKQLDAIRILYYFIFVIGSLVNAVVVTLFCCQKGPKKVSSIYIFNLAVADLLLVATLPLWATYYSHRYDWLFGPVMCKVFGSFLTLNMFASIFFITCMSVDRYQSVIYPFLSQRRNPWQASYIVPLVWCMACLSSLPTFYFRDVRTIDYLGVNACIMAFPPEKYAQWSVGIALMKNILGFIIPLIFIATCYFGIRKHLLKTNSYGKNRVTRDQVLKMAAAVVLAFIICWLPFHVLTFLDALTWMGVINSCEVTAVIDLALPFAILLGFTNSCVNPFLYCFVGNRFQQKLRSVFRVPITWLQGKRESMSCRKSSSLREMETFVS
Experimental: 2) Test on the AT2 receptor of angiotensin II
The tissue is ground up in a polytron in a 50 mM Tris buffer pH 7.4, and the grinding is followed by 3 centrifugations at 30,000 g for 15 minutes, with intermediate take up of the pellets in the Tris buffer pH 7.4.
The homogenate obtained is preincubated for 20 minutes at 25° C. in the presence of 10 mM dithiothreitol, then brought back to 0°-4° C.
as §1, with “The” for “(The”, “at 3.10^-5” for “with 3×10^-5”, “times.” for “times).”, “determined.” for “determined).”
as §2

[3] = rat liver membrane, 125I angiotensin II, 25° C., 150 minutes, read-out: AT1 Receptor IC50
[4] = products P1 to P13, expressed in nM, read-out: On AT1 receptor IC50
[5] = products P1 to P13, expressed in nM, read-out: On AT2 receptor IC50
[6] = rabbit uterus membrane (estradiol pre-treated), 125I angiotensin II, 25° C., 150 minutes, read-out: AT2 Receptor IC50

Row | Structure (SMILES) | IC50 [1, 3] [nM] | IC50 [1, 4] [nM] | IC50 [2, 5] [nM] | IC50 [2, 6] [nM]
1 | CCCCc1nc(Cl)c(C(=O)O)n1Cc1ccc(-c2ccccc2S(=O)(=O)NC(=O)NCc2ccccc2)cc1 [Example 59] | 0.08 | – | – | –
2 | CCCCc1nc(SC)c(C(=O)O)n1Cc1ccc(-c2ccccc2S(=O)(=O)NC(=O)OCC2CC=CCC2)cc1 (stereo not drawn) [Example P10, 2-butyl 1-[(2'-((((cyclohexen 4-yl)methoxycarbonyl)amino)sulphonyl) (1,1'-biphenyl) 4-yl)methyl] 4-methylthio 1H-imidazole 5-carboxylic acid] | – | 0.7 | 31 | –
3 | CCCCc1nc(SC)c(C(=O)O)n1Cc1ccc(-c2ccccc2S(=O)(=O)NC(=O)OCc2ccccc2)cc1 [Example P12, 2-butyl 4-(methylthio) 1-[(2'-(((phenylmethoxycarbonyl)amino)sulphonyl) (1,1'-biphenyl) 4-yl)methyl] 1H-imidazole 5-carboxylic acid] | – | 0.8 | 54 | –
4 | CCCCc1nc(SC)c(C(=O)O)n1Cc1ccc(-c2ccccc2S(=O)(=O)NC(=O)NC(Cc2ccccc2)C(=O)O)cc1 (stereo not drawn) [Example P7, 2-butyl 1-[(2'-(((((1-(1-carboxy 2-phenyl)ethyl)amino)carbonyl)amino)sulphonyl) (1,1'-biphenyl) 4-yl)methyl] 4-methylthio 1H-imidazole 5-carboxylic acid] | – | 0.4 | 49 | –
5 | CCCCc1nc(SC)c(C(=O)O)n1Cc1ccc(-c2ccccc2S(=O)(=O)NC(=O)NCc2ccccc2)cc1 [Example P2, 2-butyl 4-(methylthio) 1-[(2'-(((((phenylmethyl)amino)carbonyl)amino)sulphonyl) (1,1'-biphenyl) 4-yl)methyl] 1H-imidazole 5-carboxylic acid] | – | 0.1 | 14 | –
6 | CCCCc1nc(SC)c(C(=O)O)n1Cc1ccc(-c2ccccc2S(=O)(=O)NC(=O)NCc2ccc(F)cc2)cc1 [Example P6, 2-butyl 1-[(2'-((((((4-fluoro)phenylmethyl)amino)carbonyl)amino)sulphonyl) (1,1,1-biphenyl) 4-yl)methyl] 4-methylthio 1H-imidazole 5-carboxylic acid] | – | 0.27 | 10 | –
7 | CCCc1nc(SC)c(C(=O)O)n1Cc1ccc(-c2ccccc2S(=O)(=O)NC(=O)Nc2ccc(C)cc2)cc1 [Example 63, 1-((2'-(((((4-methylphenyl)amino)carbonyl)amino)sulphonyl) (1,1'-biphenyl) 4-yl)methyl) 4-(methylthio) 2-propyl 1H-imidazole 5-carboxylic acid] | – | – | – | 3.5
8 | CCCc1nc(SC(F)F)c(C(=O)O)n1Cc1ccc(-c2ccccc2S(=O)(=O)NC(=O)CCC2CCCC2)cc1 [Example 54] | – | – | – | 2.1
9 | CCCCc1nc(SC)c(C(=O)O)n1Cc1ccc(-c2ccccc2S(=O)(=O)NC(=O)NCC(C)c2ccccc2)cc1 (stereo not drawn) [Example P3, 2-butyl 4-(methylthio) 1-[(2'-(((((1-beta-phenylpropyl)amino)carbonyl)amino)sulphonyl) (1,1'-biphenyl) 4-yl)methyl] 1H-imidazole 5-carboxylic acid] | – | 1.1 | 11 | –
10 | CCCCc1nc(SC)c(C(=O)O)n1Cc1ccc(-c2ccccc2S(=O)(=O)NC(=O)OCc2cccs2)cc1 [Example P8, 2-butyl 4-(methylthio) 1-[(2'-((((2-thienyl)methoxycarbonyl)amino)sulphonyl) (1,1'-biphenyl) 4-yl)methyl] 1H-imidazole 5-carboxylic acid] | – | 0.14 | 17 | –
11 | CCCCc1nc(SC)c(C(=O)O)n1Cc1ccc(-c2ccccc2S(=O)(=O)NC(=O)NCc2ccc(OC)cc2)cc1 [Example P5, 2-butyl 1-[(2'-((((((4-methoxy)phenylmethyl)amino)carbonyl)amino)sulphonyl) (1,1'-biphenyl) 4-yl)methyl] 4-methylthio 1H-imidazole 5-carboxylic acid] | – | 0.3 | 25 | –
12 | CCCc1nc(SC(F)F)c(C(=O)O)n1Cc1ccc(-c2ccccc2S(=O)(=O)NC(=O)NCCC2=CCCCC2)cc1 [Example 56, 1-((2'-(((((2-cyclohexen-1-yl-ethyl)amino)carbonyl)amino)sulphonyl) (1,1'-biphenyl) 4-yl)methyl) 4-((difluoromethyl)thio) 2-propyl 1H-imidazole 5-carboxylic acid] | – | – | – | 5.8
13 | CCc1nc(SC)c(C(=O)O)n1Cc1ccc(-c2ccccc2S(=O)(=O)NC(=O)NCC2CCCCC2)cc1 [Example 69, potassium 1-((2'-(((((cyclohexylmethyl)amino)carbonyl)amino)sulphonyl) (1,1'-biphenyl 4-yl)methyl) 2-ethyl 4-(methylthio) 1H-imidazole 5-carboxylate (potassium salt)] | – | – | – | 1.3
14 | CCCCc1nc(SC)c(C(C)(O)C(=O)O)n1Cc1ccc(-c2ccccc2S(=O)(=O)NC(=O)NCc2ccccc2)cc1 (stereo not drawn) [Example 11] | 24 | – | – | 1.6
15 | CCCc1nc(SC)c(C(O)(C(=O)O)c2ccccc2)n1Cc1ccc(-c2ccccc2S(=O)(=O)NC(=O)NCc2ccccc2)cc1 (stereo not drawn) [Example 34, alpha-hydroxy 4-(methylthio) alpha-phenyl 1-((2'-(((((phenylmethyl)amino)carbonyl)amino)sulphonyl) (1,1'-biphenyl) 4-yl)methyl) 2-propyl 1H-imidazole 5-acetic acid] | 0.7 | – | – | 2.1
16 | CCc1nc(SC)c(C(=O)O)n1Cc1ccc(-c2ccccc2S(=O)(=O)NC(=O)NCc2ccccc2)cc1 [Example 44, 2-ethyl 4-(methylthio) 1-((2'-(((((phenylmethyl)amino)carbonyl)amino)sulphonyl) (1,1'-biphenyl) 4-yl)methyl) 1H-imidazole 5-carboxylic acid] | 0.06 | – | – | –
17 | CCCCc1nc(SC)c(C(=O)O)n1Cc1ccc(-c2ccccc2S(=O)(=O)NC(=O)OCC2CCCCC2)cc1 [Example P11, 2-butyl 1-[(2'-((((cyclohexyl)methoxycarbonyl)amino)sulphonyl) (1,1'-biphenyl) 4-yl)methyl] 4-methylthio 1H-imidazole 5-carboxylic acid] | – | 0.14 | 24 | –
18 | CCCCc1nc(SC)c(C(C)(O)C(=O)O)n1Cc1ccc(-c2ccccc2S(=O)(=O)NC(=O)NCCC)cc1 (stereo not drawn) [Example 9, 2-butyl alpha-hydroxy alpha-methyl 4-(methylthio) 1-[(2'-((((propylamino)carbonyl)amino)sulphonyl) (1,1'-biphenyl) 4-yl)methyl] 1H-imidazole 5-acetic acid] | 3.4 | – | – | 8.5
19 | CCCCc1nc(SC)c(C(=O)O)n1Cc1ccc(-c2ccccc2S(=O)(=O)NC(=O)OCc2ccsc2)cc1 [Example P9, 2-butyl 4-(methylthio) 1-[(2'-((((3-thienyl)methoxycarbonyl)amino)sulphonyl) (1,1'-biphenyl) 4-yl)methyl] 1H-imidazole 5-carboxylic acid] | – | 0.19 | 53 | –
20 | CCCCc1nc(OC)c(C=O)n1Cc1ccc(-c2ccccc2S(=O)(=O)NC(=O)OCc2ccccc2)cc1 [Example P13, (phenylmethyl) ((4'-((2-butyl 5-formyl 4-methoxy 1H-imidazol 1-yl)methyl) (1,1'-biphenyl) 2-yl)sulphonyl) carbamate] | – | 5.9 | 63 | –
21 | CCCCc1nc(SC)c(C(=O)O)n1Cc1ccc(-c2ccccc2S(=O)(=O)NC(=O)NCCCCc2ccccc2)cc1 [Example P4, 2-butyl 4-(methylthio) 1-[(^2 '-(((((1-(4-phenylbutyl))amino)carbonyl)amino)sulphonyl) (1,1'-biphenyl) 4-yl)methyl] 1H-imidazole 5-carboxylic acid] | – | 0.5 | 47 | –
